Experimental data as given in US6835736B1, “Discorhabdin compounds and methods of use” (Harbor Branch Oceanographic Institution, Inc., priority 2003, dated 2004).

Legend:
Assay type in all cases: cell-based
[1] = test system: A549 human adenocarcinoma cell line; test: Antiproliferative MTT assay, A549 cells; conditions: additional 48 hour exposure
Protocol: (§1) Extracts and compounds were analyzed as to their effects on proliferation of A549 human adenocarcinoma, PANC-1 human pancreatic and P388 murine leukemia cell lines. P388 and NCI/ADR cells were obtained from Dr. R. Camalier, National Cancer Institute, Bethesda, Md., and A549 and PANC-1 cells were obtained from American Type Culture Collection, Rockville, Md. All cell lines were maintained in Roswell Park Memorial Institute (RPMI) medium 1640 supplemented with 10% fetal bovine sernm. All cell lines are cultured in plastic tissue culture flasks and kept in an incubator at 37° C. in humidified air containing 5% CO2. Prior to testing, antibiotic-free stock cultures of each of the cell lines were subcultured to […] by dilution in fresh growth medium at 2 to 3 day intervals.
(§2) To assess the antiproliferative effects of extracts and compounds against the P388 cell line, 200 μl cultures (96-well tissue culture plates, Nunc, Denmark) are established at 1×10^5 cells/ml in drug-free medium or medium containing the test agent at 10.0, 1.0, 0.10 and 0.010 μg/ml. Solvent for all dilutions ethanol. All experimental cultures are initiated in medium containing gentamycin su fate (50 μg/ml; Schering Corporation, Kenilworth, N.J.). After 48-h exposures, P388 cells are enumerated using 3-[4,5-dimethylthiazol-2-yl]-2,5-diphenyltetrazolium bromide (MTT) as described below (M. C. Alley et al., 1988, Cancer Res. 48:589.
(§3) Similar procedures are utilized for A549 and PANC-1 cells which require an additional 48 hour exposure prior to MTT addition. Results are expressed as percent inhibition compared to the negative (no drug) control. Positive drug controls are included to monitor drug sensitivity of each of the cell lines. These include varying dilutions of 5-fluorouracil and adriamycin.
(§4) To quantitate the effects of pure compounds on cell proliferation and resulting IC50 values, 75 μl of warm growth media containing 5 mg/ml MTT is added to each well, cultures returned to the incubator, and left undisturbed for 90 minutes. […]

[2] = test system: P388 murine leukemia cell line; test: Antiproliferative MTT assay, P388 cells; conditions: Mus musculus, 48-h exposure, read-out: Activity (IC50) P-388
Protocol: as §1, §2
(§5) To quantitate the effects of pure compounds on cell proliferation and resulting IC50 values, 75 μl of warm growth media containing 5 mg/ml MTT is added to each well, cultures returned to the incubator, and left undisturbed for 90 minutes. To spectrophotometrically quantitate formation of reduced formazan, plates are centrifuged (900×g, 5 minutes), culture fluids removed by aspiration, and 200 μl of acidified isopropanol (2 ml concentrated HCl/liter isopropanol) added per well. The absorbance of the resulting solutions is measured at 570 nm with a plate reader (TECAN Spectra II Plate Reader, TECAN U.S., Research Triangle Park, NC). […]

[3] = test system: PANC-1 human pancreatic cell line; test: Antiproliferative MTT assay, PANC-1 cells; conditions: additional 48 hour exposure
Protocol: as §1, §2, §3, §4

NCI/ADR cells = test: Antiproliferative MTT assay, NCI/ADR cells; conditions: Homo sapiens, NCI/ADR-RES
Protocol: as §1, §5

SMILES | IC50 [1] [µg/mL] | IC50 [2] [µg/mL] | IC50 [3] [µg/mL] | IC50 (NCI/ADR cells) [µg/mL]
CSC1=CC(=O)C(Br)=CC12C=CNC1=C2c2nccc3cn(C)c(c23)C1=O (stereo not drawn) [Discorhabdin T] | > 5 | > 5 | 0.7 | > 5
CSC1=CC(=O)C(Br)=CC12CCNC1=C2c2nccc3cn(C)c(c23)C1=O (stereo not drawn) [Discorhabdin S] | > 5 | 3.08 | 2.6 | > 5
CSC1=CC(=O)C(Br)=CC12C=CNC1=C2C2=NCCc3cn(C)c(c32)C1=O (stereo not drawn) [Discorhabdin U] | 0.34 | 0.17 | 0.069 | 0.22
